Measurements reported in PubChem BioAssay (NCI).
Values joined by “and” are separate entries in the source; they are usually repeats but may differ in a detail not shown here. Equal entries are not always repeated.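 Step 1: Grow cells in 96-well plates. Step 2: Expose to compound for 48 hours at 5 concentrations. Step 3: Interpolate endpoints linearly; if unreached, use highest concentration. GI50: concentration for 50% inhibition of growth. TGI: total growth inhibition.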

Assays:
Assay in all cases: NCI anticancer screen, dose series, 48 h
786-0 renal = tested on: 786-0 renal
EKVX NSCLC = tested on: EKVX NSCLC
HOP-92 NSCLC = tested on: HOP-92 NSCLC
HT29 colon = tested on: HT29 colon
MDA-MB-435 = tested on: MDA-MB-435
NCI-H460 lung = tested on: NCI-H460 lung
NCI/ADR-RES ovarian = tested on: NCI/ADR-RES ovarian
OVCAR-8 ovarian = tested on: OVCAR-8 ovarian
SK-OV-3 ovarian = tested on: SK-OV-3 ovarian
T-47D breast = tested on: T-47D breast

Row | SMILES | GI50 (786-0 renal) [nM] | TGI (786-0 renal) | GI50 (EKVX NSCLC) [nM] | TGI (EKVX NSCLC) | GI50 (HOP-92 NSCLC) [nM] | TGI (HOP-92 NSCLC) [µM] | GI50 (HT29 colon) [nM] | TGI (HT29 colon) | GI50 (MDA-MB-435) [nM] | TGI (MDA-MB-435) [µM] | GI50 (NCI-H460 lung) [nM] | TGI (NCI-H460 lung) | GI50 (NCI/ADR-RES ovarian) [nM] | TGI (NCI/ADR-RES ovarian) | GI50 (OVCAR-8 ovarian) [µM] | TGI (OVCAR-8 ovarian) | GI50 (SK-OV-3 ovarian) [µM] | TGI (SK-OV-3 ovarian) | GI50 (T-47D breast) [nM] | TGI (T-47D breast)
1 | O=c1c2ccccc2c(/C=N\NC2=NCCN2)c2oc3ccccc3n12 | 33900 | > 100 µM | 16500 | 37.2 µM | 22500 | 51.1 | 20700 | > 100 µM | 38000 | > 100 | 17800 | 39.5 µM | > 100000 | > 100 µM | 19.4 | 45.6 µM | 19.5 | 40.8 µM | 17600 | 36 µM
2 | COc1ccc(NC2=C(I)C(=O)c3ncccc3C2=O)cc1 | 1850 | 4.74 µM | 1730 | 3.68 µM | 1480 | 3.78 | 3070 | 10.2 µM | 253 | 0.628 | 647 | 2.24 µM | 1570 | 4.41 µM | 1.84 | 5.79 µM | 1.36 | 2.72 µM | 1590 | 4.17 µM
3 | C#Cc1cccc(Nc2ncnc3ccc(OCCCCNCCS(C)(=O)=O)cc23)c1 | 7540 | > 25 µM | 161 | > 25 µM | 1680 | 14.4 | 5440 | 12.5 µM | 5370 | 12.5 | 10500 | > 25 µM | 11400 | > 25 µM | 7.56 | > 25 µM | 1.28 | > 25 µM | 7200 | > 25 µM
4 | N#CC1=C(N)NC(=S)NC12Nc1ccccc1S2 (stereo not drawn) | > 100000 | > 100 µM | 3710 | 37.9 µM | 22400 | > 100 | 31000 | > 100 µM | 19200 | 47.6 | 17000 | 45.8 µM | 26700 | 88.7 µM | 39.6 | > 100 µM | 37.1 | > 100 µM | 29900 | > 100 µM
5 | O=Nc1c(-c2c(O)[nH]c3cc(Br)ccc23)[nH]c2ccccc12 | 1220 | 4.4 µM | 1300 | 3.22 µM | 1970 | 7.29 | 1670 | 3.44 µM | 1610 | 3.01 | 1290 | 7.57 µM | 1420 | 4.48 µM | 2.32 | > 100 µM | 0.223 | 2.94 µM | 1980 | 5.48 µM
6 | CC(C)(c1ccccc1)c1cc(O)c(C(C)(C)c2ccccc2)cc1O | 2670 | 9.38 µM | 1940 | 12.5 µM | 1750 | 6.66 | 1640 | 8.91 µM | 1430 | 8.85 | 2230 | 7.53 µM | 2700 | 12.1 µM | 3.75 | 20.9 µM | 3.55 | 14.5 µM | 1810 | 12.7 µM
7 | COc1ccc(C(=NN=C(N)N)c2ccc(OC)cc2)cc1 | 3290 | 13.1 µM | 4680 | 24.7 µM | 1900 | 7.45 | 2950 | 12.6 µM | 1780 | 4.33 | 3040 | 11 µM | 21100 | 75.6 µM | 5.29 | 21.1 µM | 2.78 | 10.6 µM | 3210 | 15.1 µM
8 | COc1cc([N+](=O)[O-])c(OC)cc1-c1nc2sc(C)cn2c1/C(N)=N/C(=N)N | > 100000 | > 100 µM | 15100 | 50.9 µM | 24100 | 88.3 | > 100000 | > 100 µM | 16100 | > 100 | 43700 | > 100 µM | > 100000 | > 100 µM | 35.7 | > 100 µM | > 100 | > 100 µM | > 100000 | > 100 µM
9 | N#Cc1c(NC(=O)c2ccc(F)cc2)sc2c1CCCC2 | > 25000 | > 25 µM | > 25000 | > 25 µM | > 25000 | > 25 | > 25000 | > 25 µM | > 25000 | > 25 | > 25000 | > 25 µM | > 25000 | > 25 µM | > 25 | > 25 µM | > 25 | > 25 µM | > 25000 | > 25 µM
10 | Cc1cnc2oc3ccc(O)cc3c2c1-c1ccccc1 | 36300 | > 100 µM | 13800 | 65.5 µM | 3340 | 38.5 | > 100000 | > 100 µM | > 100000 | > 100 | 19700 | > 100 µM | 28400 | > 100 µM | 99 | > 100 µM | 25 | 86.9 µM | 3630 | > 100 µM
11 | COc1c(/C=C/C=O)cc2c(c1OC)OCO2 | – | > 100 µM | – | > 100 µM | – | > 100 | – | 69.5 µM | – | > 100 | – | > 100 µM | – | > 100 µM | – | > 100 µM | – | > 100 µM | – | > 100 µM
12 | COc1cc(/C=C2\CCC/C(=C\c3ccc(O)c(OC)c3)C2=O)ccc1O | 1670 | 4.42 µM and 3.07 µM | 2100 | 24.3 µM and 10.8 µM | – | 30.7 | 2310 | 18.8 µM and 5.68 µM | 1420 | – | 2050 | 11.2 µM and 4.96 µM | 2340 | 12.6 µM and 9.79 µM | 2.49 | 3.39 µM and 11.1 µM | 2.36 | 15.5 µM and 6.31 µM | 1910 | 12.2 µM and 7.41 µM
13 | COC1=C(C)C(=O)c2c(c(CCCl)c3n2CCC3OC(C)=O)C1=O (stereo not drawn) | 287 | 1.24 µM | 2090 | 7.3 µM | 4480 | 24 | 152 | 1.89 µM | 523 | 1.97 | 38.9 | 1.29 µM | 447 | 8.47 µM | 0.897 | 19.4 µM | 0.279 | 0.983 µM | 8220 | > 94.6 µM
14 | C/C(=N\OCC(O)CNCCSCc1ccccc1)c1ccccc1Cl (stereo not drawn) | – | 46.3 µM | – | 40.6 µM | – | 28.4 | – | 41.4 µM | – | 34.4 | – | 52.3 µM | – | 41 µM | – | 32 µM | – | 35.4 µM | – | 48.6 µM
15 | Clc1cc(Cl)c(OCCCCCCN2CCNCC2)c(Cl)c1 | 1730 | 3.24 µM | 9450 | 22.3 µM | 2320 | 7.64 | 1960 | 4.3 µM | 2020 | 4.23 | 2030 | 4.15 µM | 8860 | 26.1 µM | 3.36 | 12.4 µM | 12.9 | 28.6 µM | 2010 | 5.06 µM
16 | CC(=O)CC/C=C(\C)[C@H](O)[C@H](C)C(=O)O[C@H]1C[C@H](C)C=C2C=C[C@@]3(C)O[C@@H](O)CC(=O)[C@]3(C)[C@H]21 | 430 | 3.29 µM | 877 | 4.64 µM | 1530 | 7.06 | 264 | 1.37 µM | 508 | 2.09 | 379 | 7.38 µM | 1440 | 11.7 µM | 0.425 | 6 µM | 1.26 | 6.42 µM | 309 | 2.54 µM
17 | Cc1ccc(C=C2C(Cl)=C(Cl)C(Cl)=C2Cl)cc1 | 721 | 1.75 µM | 1400 | 4.28 µM | 1330 | 4.35 | 796 | 2.89 µM | 420 | 1.6 | 1660 | 3.88 µM | 324 | 1.52 µM | 0.418 | 9.45 µM | 2.03 | 4.62 µM | 1020 | 2.79 µM
18 | COC(=O)[C@]12CC[C@@H](C)[C@H](C)[C@@H]1C1=CC[C@@H]3[C@@]4(C)C[C@@H](OC(=O)/C=C/c5ccccc5)[C@H](O)[C@@](C)(CO)[C@@H]4[C@H](O)C[C@@]3(C)[C@]1(C)CC2 | 1870 | 3.82 µM | 2940 | 11.7 µM | 2110 | 6.42 | 1800 | 3.81 µM | 2440 | 6.47 | 2120 | 4.7 µM | 2920 | 10.9 µM | 3.2 | 11.5 µM | 3.91 | 14.3 µM | 2340 | 10.9 µM
19 | NC(=S)N/N=C1\c2ccccc2-c2c(F)c(F)c(F)c(F)c21 | 6560 | 20 µM | 25400 | > 100 µM | 6330 | 19.9 | 2200 | 5.07 µM | 7440 | 20.6 | 5650 | 24.7 µM | 5770 | 16.7 µM | 1.84 | 3.68 µM | 14.1 | 36.5 µM | 1910 | 5.08 µM
